We go through 30 compounds from patent publication US8759535B2, “Substituted fused imidazole derivatives, pharmaceutical compositions, and methods of use thereof” (High Point Pharmaceuticals, LLC, priority 2010, dated 2014).

Counter-ions that a name gives are not always drawn.

The first experiment deals with HMOX1. The experiment in a line: HMOX1 Protein Assay (immunostaining of HO-1 in NHLF cells, GE InCell 1000). The format is cell-based. The following applies: Homo sapiens, fold change above DMSO treated cells, 3 μM compound (asterisk), 16 h. The method in brief:
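Fold induction of HO-1 over vehicle, normally at 5 μM compound (asterisk marks 3 μM), in 0.8% DMSO medium. Normal human lung fibroblasts were treated 16 h, then paraformaldehyde-fixed, anti-HO-1/Alexa 488 stained with Hoechst, and read by high-content imaging.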
The term fold induction denotes the signal under treatment as a multiple of the control signal. A high value points to a large rise in signal. `C[C@@H](O)CNC(=O)c1ccc2c(c1)nc(Nc1nc3ccc(Cl)cc3s1)n2C` [Example 203, 2-(6-Chloro-benzothiazol-2-ylamino)-1-methyl-1H-benzoimidazole-5-carboxylic acid ((R)-2-hydroxy-propyl)-amide]: the fold induction at 3 µM came out at 18.7.

For `C[C@H](NC(=O)c1ccc2c(c1)nc(Nc1nc3ccc(Cl)cc3s1)n2C)C(=O)N(C)C` [Example 462, 2-(6-Chloro-benzothiazol-2-ylamino)-1-methyl-1H-benzoimidazole-5-carboxylic acid ((S)-1-dimethylcarbamoyl-ethyl)-amide], the fold induction at 3 µM is 20. With `C[C@H](CO)OCCNC(=O)c1ccc2c(c1)nc(Nc1nc3ccc(Cl)cc3s1)n2C` [Example 243, 2-(6-Chloro-benzothiazol-2-ylamino)-1-methyl-1H-benzoimidazole-5-carboxylic acid [2-((R)-2-hydroxy-1-methyl-ethoxy)-ethyl]-amide], the fold induction at 3 µM is 15.2. The compound `Cn1c(Nc2nc3ccc(C(F)(F)F)cc3s2)nc2cc(C(=O)NCCN3CCOCC3)ccc21` [Example 341, 1-Methyl-2-(6-trifluoromethyl-benzothiazol-2-ylamino)-1H-benzoimidazole-5-carboxylic acid (2-morpholin-4-yl-ethyl)-amide] gave a fold induction at 3 µM of 32.8.

The compound `CNC(=O)CNC(=O)c1ccc2c(c1)nc(Nc1nc3ccc(C(F)(F)F)cc3s1)n2C` [Example 381, 1-Methyl-2-(6-trifluoromethyl-benzothiazol-2-ylamino)-1H-benzoimidazole-5-carboxylic acid methylcarbamoylmethyl-amide] registered a fold induction at 3 µM of 28.2. Compound `C[C@H](NC(=O)c1ccc2c(c1)nc(Nc1nc3ccc(Cl)cc3s1)n2C)C(=O)N1CCOCC1` [Example 465, 2-(6-Chloro-benzothiazol-2-ylamino)-1-methyl-1H-benzoimidazole-5-carboxylic acid ((S)-1-methyl-2-morpholin-4-yl-2-oxo-ethyl)-amide] displayed a fold induction at 3 µM of 20.4.

`CO[C@@H]1CCCN(C(=O)CNC(=O)c2ccc3c(c2)nc(Nc2nc4ccc(C(F)(F)F)cc4s2)n3C)C1` [Example 446, 1-Methyl-2-(6-trifluoromethyl-benzothiazol-2-ylamino)-1H-benzoimidazole-5-carboxylic acid [2-((R)-3-methoxy-piperidin-1-yl)-2-oxo-ethyl]-amide] showed a fold induction at 3 µM of 31.3.

For `Cn1c(Nc2nc3ccc(OC(F)(F)F)cc3s2)nc2cc(C(=O)NCCCN3CCOCC3)ccc21` [Example 358, 1-Methyl-2-(6-trifluoromethoxy-benzothiazol-2-ylamino)-1H-benzoimidazole-5-carboxylic acid (3-morpholin-4-yl-propyl)-amide], the fold induction at 3 µM stood at 11.8.

Staying with this experiment, now noted: Homo sapiens, fold change above DMSO treated cells, 5 μM compound, 16 h.
Turning to `CNC(=O)c1ccc2c(c1)nc(Nc1nc3ccc(OC(F)(F)F)cc3s1)n2CC(C)C` [Example 164, 1-Isobutyl-2-(6-trifluoromethoxy-benzothiazol-2-ylamino)-1H-benzoimidazole-5-carboxylic acid methylamide], the fold induction at 5 µM was found to be 20.5. Compound `Cn1c(Nc2nc3ccc(S(C)(=O)=O)cc3s2)nc2cc(C(=O)O)ccc21` [Example 119, 2-(6-Methanesulfonyl-benzothiazol-2-ylamino)-1-methyl-1H-benzimidazole-5-carboxylic acid] gave a fold induction at 5 µM of 22.1. On the same count and under the same terms, the same measure for `COCCCNC(=O)c1ccc2c(c1)nc(Nc1nc3ccc(OC(F)(F)F)cc3s1)n2C` [Example 19, 1-Methyl-2-(6-trifluoromethoxy-benzothiazol-2-ylamino)-1H-benzoimidazole-5-carboxylic acid (3-methoxy-propyl)-amide]: 21.1. `Cn1c(Nc2nc3ccc(Cl)cc3s2)nc2cc(C(=O)NCCN)ccc21` [Example 343, 2-(6-Chloro-benzothiazol-2-ylamino)-1-methyl-1H-benzoimidazole-5-carboxylic acid (2-amino-ethyl)-amide hydrochloride] yielded a fold induction at 5 µM of 21.1. For the compound `Cn1c(Nc2nc3ccc(OC(F)(F)F)cc3s2)nc2cc(C(=O)NCC(=O)NCc3ccc(O)cc3)ccc21` [Example 389, 1-Methyl-2-(6-trifluoromethoxy-benzothiazol-2-ylamino)-1H-benzoimidazole-5-carboxylic acid [(4-hydroxy-benzylcarbamoyl)-methyl]-amide], the fold induction at 5 µM came to 38.6.

Regarding `COCCNC(=O)c1cnc2c(c1)nc(Nc1nc3ccc(OC(F)(F)F)cc3s1)n2C` [Example 73, 3-Methyl-2-(6-trifluoromethoxy-benzothiazol-2-ylamino)-3H-imidazo[4,5-b]pyridine-6-carboxylic acid (2-methoxy-ethyl)-amide], the fold induction at 5 µM was found to be 20.6.

For the compound `CCOCCNC(=O)c1ccc2c(c1)nc(Nc1nc3ccc(OC(F)(F)F)cc3s1)n2CCOC` [Example 169, 1-(2-Methoxy-ethyl)-2-(6-trifluoromethoxy-benzothiazol-2-ylamino)-1H-benzoimidazole-5-carboxylic acid (2-ethoxy-ethyl)-amide], the fold induction at 5 µM was determined as 24.4. `Cn1c(Nc2nc3ccc(OC(F)(F)F)cc3s2)nc2cc(C(=O)NCC(=O)N3CCC(C(N)=O)CC3)ccc21` [Example 451, 1-Methyl-2-(6-trifluoromethoxy-benzothiazol-2-ylamino)-1H-benzoimidazole-5-carboxylic acid [2-(4-carbamoyl-piperidin-1-yl)-2-oxo-ethyl]-amide] gave a fold induction at 5 µM of 51.3.

Take `Cn1c(Nc2nc3ccc(OC(F)(F)F)cc3s2)nc2cc(C(=O)NCC(=O)N3CC[C@H](N)C3)ccc21` [Example 412, 1-Methyl-2-(6-trifluoromethoxy-benzothiazol-2-ylamino)-1H-benzoimidazole-5-carboxylic acid [2-((S)-3-amino-pyrrolidin-1-yl)-2-oxo-ethyl]-amide hydrochloride]: the fold induction at 5 µM came to 47.6. As for `CN(C)CCOCCNC(=O)c1ccc2c(c1)nc(Nc1nc3ccc(Cl)cc3s1)n2C` [Example 274, 2-(6-Chloro-benzothiazol-2-ylamino)-1-methyl-1H-benzoimidazole-5-carboxylic acid [2-(2-dimethylamino-ethoxy)-ethyl]-amide], the fold induction at 5 µM is 65.9. Still for that read-out and setting: the result for `COCCNC(=O)c1ccc2c(c1)nc(Nc1nc3ccc(F)cc3s1)n2C` [Example 125, 2-(6-Fluoro-benzothiazol-2-ylamino)-1-methyl-1H-benzimidazole-5-carboxylic acid (2-methoxy-ethyl)-amide] reads 25.9; that for `Cn1c(Nc2nc3ccc(OC(F)(F)F)cc3s2)nc2cc(C(=O)NCC#N)ccc21` [Example 211, 1-Methyl-2-(6-trifluoromethoxy-benzothiazol-2-ylamino)-1H-benzoimidazole-5-carboxylic acid cyanomethyl-amide], 46.1; that for `CCn1c(Nc2nc3ccc(OC(F)(F)F)cc3s2)nc2cc(C(=O)O)ccc21` [Example 154, 1-Ethyl-2-(6-trifluoromethoxy-benzothiazol-2-ylamino)-1H-benzoimidazole-5-carboxylic acid], 27.1. In the case of `Cn1c(Nc2nc3ccc(Cl)cc3s2)nc2cc(C(=O)N[C@H]3CC[C@H](C(=O)O)CC3)ccc21` [Example 378, 4-{[2-(6-Chloro-benzothiazol-2-ylamino)-1-methyl-1H-benzoimidazole-5-carbonyl]-amino}-trans-cyclohexanecarboxylic acid], the fold induction at 5 µM came out at 24.9. `Cn1c(Nc2nc3ccc(OC(F)(F)F)cc3s2)nc2cc(-c3ncc[nH]3)ccc21` [Example 196, [5-(1H-Imidazol-2-yl)-1-methyl-1H-benzimidazol-2-yl]-(6-trifluoromethoxy-benzothiazol-2-yl)-amine]: the fold induction at 5 µM was determined as 11.4.

On to `CCOCCNC(=O)c1ccc2c(c1)nc(Nc1nc3ccc(Cl)cc3s1)n2CC` [Example 179, 2-(6-Chloro-benzothiazol-2-ylamino)-1-ethyl-1H-benzoimidazole-5-carboxylic acid (2-ethoxy-ethyl)-amide], for which the fold induction at 5 µM was determined as 24.4. On the same count and under the same terms, the result for `Cn1c(Nc2nc3ccc(OC(F)(F)F)cc3s2)nc2cc(C(=O)NCc3ccco3)ccc21` [Example 48, 1-Methyl-2-(6-trifluoromethoxy-benzothiazol-2-ylamino)-1H-benzoimidazole-5-carboxylic acid (furan-2-ylmethyl)-amide] reads 15.8; that for `Cn1c(Nc2nc3ccc(OC(F)(F)F)cc3s2)nc2cc(C(=O)NCCOCCCO)ccc21` [Example 246, 1-Methyl-2-(6-trifluoromethoxy-benzothiazol-2-ylamino)-1H-benzoimidazole-5-carboxylic acid [2-(3-hydroxy-propoxy)-ethyl]-amide], 76.5; that for `CCn1c(Nc2nc3ccc(OC(F)(F)F)cc3s2)nc2cc(S(=O)(=O)C(F)(F)F)ccc21` [Example 199, (1-Ethyl-5-trifluoromethanesulfonyl-1H-benzoimidazol-2-yl)-(6-trifluoromethoxy-benzothiazol-2-yl)-amine], 1.5. The same measure, in the same setting: the same measure for `CCn1c(Nc2nc3ccc(C(F)(F)F)cc3s2)nc2cc(C(=O)NCC(C)(C)OC)ccc21` [Example 184, 1-Ethyl-2-(6-trifluoromethyl-benzothiazol-2-ylamino)-1H-benzoimidazole-5-carboxylic acid (2-methoxy-2-methyl-propyl)-amide]: 9.5; for `Cn1c(Nc2nc3ccc(OC(F)(F)F)cc3s2)nc2cc(C(=O)NCCOC(F)(F)F)ccc21` [Example 44, 1-Methyl-2-(6-trifluoromethoxy-benzothiazol-2-ylamino)-1H-benzoimidazole-5-carboxylic acid (2-trifluoromethoxy-ethyl)-amide]: 12.1; for `Cn1c(Nc2nc3ccc(OC(F)(F)F)cc3s2)nc2cc(C(=O)NCC(=O)N3CCCC3)ccc21` [Example 141, 1-Methyl-2-(6-trifluoromethoxy-benzothiazol-2-ylamino)-1H-benzimidazole-5-carboxylic acid (2-oxo-2-pyrrolidin-1-yl-ethyl)-amide]: 23.1.
